pIC50: −log10 of the molar value.
Tests used:
Androgen receptor = target: T1, Androgen receptor (Rattus norvegicus, UniProt P15207); assay: In vitro antagonist activity against rat prostatic androgen receptor (AR)
T1 sequence (P15207 whole entry): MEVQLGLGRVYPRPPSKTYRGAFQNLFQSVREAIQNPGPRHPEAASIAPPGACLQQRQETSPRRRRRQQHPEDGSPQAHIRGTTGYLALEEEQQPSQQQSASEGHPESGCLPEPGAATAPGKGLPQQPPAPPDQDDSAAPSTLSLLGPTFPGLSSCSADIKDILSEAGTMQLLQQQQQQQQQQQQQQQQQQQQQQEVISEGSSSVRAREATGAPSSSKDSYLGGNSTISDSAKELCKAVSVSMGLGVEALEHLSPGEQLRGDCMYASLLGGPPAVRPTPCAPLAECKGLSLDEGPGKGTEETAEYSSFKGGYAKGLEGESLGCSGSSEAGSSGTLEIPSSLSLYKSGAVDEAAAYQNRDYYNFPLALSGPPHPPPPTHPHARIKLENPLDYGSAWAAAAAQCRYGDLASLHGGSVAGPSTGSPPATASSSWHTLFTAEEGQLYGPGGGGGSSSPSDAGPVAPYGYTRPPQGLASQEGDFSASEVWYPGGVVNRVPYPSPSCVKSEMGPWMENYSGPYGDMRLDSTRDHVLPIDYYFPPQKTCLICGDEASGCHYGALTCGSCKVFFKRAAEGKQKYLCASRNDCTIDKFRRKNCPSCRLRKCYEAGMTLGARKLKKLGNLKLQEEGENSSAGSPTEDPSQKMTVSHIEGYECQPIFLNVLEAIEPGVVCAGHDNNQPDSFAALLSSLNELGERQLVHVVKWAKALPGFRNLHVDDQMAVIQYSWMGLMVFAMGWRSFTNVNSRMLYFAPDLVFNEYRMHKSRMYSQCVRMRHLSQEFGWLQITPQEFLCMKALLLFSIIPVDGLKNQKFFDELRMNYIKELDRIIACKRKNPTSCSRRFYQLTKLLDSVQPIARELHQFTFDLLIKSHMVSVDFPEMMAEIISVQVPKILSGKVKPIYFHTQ

[1] = target: T2, Steroid 5-alpha-reductase (Rattus norvegicus, UniProt P24008+P31214); assay: Inhibition of Steroid 5-alpha-reductase from rat prostate; format: tissue-based, Prostate gland
T2 sequence (P24008 whole entry): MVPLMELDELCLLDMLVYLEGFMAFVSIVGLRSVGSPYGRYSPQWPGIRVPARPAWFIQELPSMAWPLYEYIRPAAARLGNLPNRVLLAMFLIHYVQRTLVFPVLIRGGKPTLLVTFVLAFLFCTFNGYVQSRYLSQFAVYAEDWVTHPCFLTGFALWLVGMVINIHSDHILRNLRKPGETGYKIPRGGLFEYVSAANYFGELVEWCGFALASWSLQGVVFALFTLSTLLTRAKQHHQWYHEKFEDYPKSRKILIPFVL
T2 sequence (P31214 whole entry): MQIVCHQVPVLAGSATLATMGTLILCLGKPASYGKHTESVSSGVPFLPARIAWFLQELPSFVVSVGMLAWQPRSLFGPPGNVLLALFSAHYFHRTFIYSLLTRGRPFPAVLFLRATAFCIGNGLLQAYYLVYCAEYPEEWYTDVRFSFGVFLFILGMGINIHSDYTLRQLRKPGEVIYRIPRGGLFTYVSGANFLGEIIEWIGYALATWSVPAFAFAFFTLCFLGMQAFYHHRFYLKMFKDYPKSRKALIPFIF

[2] = target: T2, Steroid 5-alpha-reductase; assay: Apparent inhibitory constant value for rat prostatic steroid 5-alpha reductase was determined; format: protein assay
[3] = target: T2, Steroid 5-alpha-reductase; assay: In vitro inhibitory activity against rat prostatic steroid 5-alpha-reductase; format: protein assay
[4] = target: T2, Steroid 5-alpha-reductase; assay: Apparent inhibitory constant value for rat prostatic steroid 5alpha reductase was determined; format: protein assay
[5] = target: T2, Steroid 5-alpha-reductase; assay: Apparent inhibitory constant value for rat prostatic 5-alpha reductase was determined; format: protein assay

Work on CCN(CC)C(=O)[C@H]1CC[C@H]2[C@@H]3CCC4=CC(=O)CC[C@]4(C)[C@H]3CC[C@]12C yielded a pIC50 (Androgen receptor) of 6.47 and an IC50 [1] of 7.6e-07 M.
With CCN(CC)C(=O)[C@H]1CC[C@H]2[C@@H]3CCC4=C(C#N)C(=O)CC[C@]4(C)[C@H]3CC[C@]12C the pIC50 (Androgen receptor) was 5.89 and the IC50 [1] was 2.9e-08 M.
Work on C[C@]12CC[C@H]3[C@@H](CCC4NC(=O)CC[C@@]43C)[C@@H]1CC[C@@H]2O (some centres not stated) yielded a pIC50 (Androgen receptor) of 6.03 and an IC50 [1] of 2.5e-07 M.
In the case of CC(O)[C@H]1CC[C@H]2[C@@H]3CCC4N(C)C(=O)CC[C@]4(C)[C@H]3CC[C@]12C (some centres not stated), the pIC50 (Androgen receptor) was 7.13 and the IC50 [1] was 1.9e-08 M.
In the case of C[C@]12CCC(=O)C[C@@H]1CC[C@@H]1[C@@H]2CC[C@]2(C)[C@@H](O)CC[C@@H]12 [STANOLONE], the IC50 [1] was >> 1e-6 M.
Molecule CC(O)[C@@]1(O)CC[C@H]2[C@@H]3CCC4N(C)C(=O)CC[C@]4(C)[C@H]3CC[C@@]21C (some centres not stated) has a pIC50 (Androgen receptor) of 5.72, a Ki app [2] of 6 nM and an IC50 [3] of 7.6 nM.
With C[C@]12CC[C@H]3[C@@H](CCC4=CC(=O)CC[C@@]43C)[C@@H]1CC[C@@H]2C(=O)O the pIC50 (Androgen receptor) was 5.05 and the IC50 [1] was 6.6e-07 M.
For C[C@]12CCC(=O)CC1CC[C@@H]1[C@@H]2CC[C@@]2(C)[C@H]1CC[C@@]21CCCO1 (some centres not stated), the pIC50 (Androgen receptor) was 7.64 and the IC50 [1] was > 1e-06 M.
CN1C(=O)CC[C@@]2(C)C1CC[C@@H]1[C@@H]2CC[C@@]2(C)[C@H]1CC[C@@]21CCCO1 (some centres not stated) showed a pIC50 (Androgen receptor) of 6.85, a Ki app [2] of 24 nM and an IC50 [3] of 37 nM.
In the case of CN1C(=O)CC[C@@]2(C)C1CC[C@H]1[C@@H]3CC[C@H](O)[C@@]3(C)CC[C@@H]12 (some centres not stated), the pIC50 (Androgen receptor) was 7.72 and the IC50 [1] was 1.5e-07 M.
Work on CC(O)[C@H]1CC[C@H]2[C@@H]3CCC4NC(=O)CC[C@]4(C)[C@H]3CC[C@]12C (some centres not stated) yielded a pIC50 (Androgen receptor) of 5.03 and an IC50 [1] of 4.5e-08 M.
Molecule COC(=O)[C@H]1CC[C@H]2[C@@H]3CCC4=CC(=O)CC[C@]4(C)[C@H]3CC[C@]12C has a pIC50 (Androgen receptor) of 6.85 and an IC50 [1] of 4.8e-07 M.
Molecule CC(=O)[C@H]1CC[C@H]2[C@@H]3CCC4NC(=O)CC[C@]4(C)[C@H]3CC[C@]12C (some centres not stated) has a pIC50 (Androgen receptor) of 4.17 and an IC50 [1] of 5e-08 M.
CCN(CC)C(=O)[C@H]1CC[C@H]2[C@@H]3CC[C@H]4N(C)C(=O)CC[C@]4(C)[C@H]3CC[C@]12C was tested, and the pIC50 (Androgen receptor) was 5.55, the Ki app [4] was 5 nM and the IC50 [3] was 11 nM.
In the case of CC(C)N(C(=O)[C@H]1CC[C@H]2[C@@H]3CCC4NC(=O)CC[C@]4(C)[C@H]3CC[C@]12C)C(C)C (some centres not stated), the pIC50 (Androgen receptor) was < 4.00, the Ki app [2] was 13 nM and the IC50 [3] was 11 nM.
Work on CC(=O)[C@H]1CC[C@H]2[C@@H]3CCC4N(C)C(=O)CC[C@]4(C)[C@H]3CC[C@]12C (some centres not stated) yielded a pIC50 (Androgen receptor) of 6.68 and an IC50 [1] of 2.3e-08 M.
CCN(CC)C(=O)[C@H]1CC[C@H]2[C@@H]3CC[C@@H]4NC(=O)CC[C@]4(C)[C@H]3CC[C@]12C (stereo in doubt; 9x) was tested, and the pIC50 (Androgen receptor) was < 4.00, the Ki app [2] was 29 nM and the IC50 [3] was 41 nM.
CCN(CC)C(=O)[C@H]1CC[C@H]2[C@@H]3CC[C@H]4N(C)C(=O)C(=O)C[C@]4(C)[C@H]3CC[C@]12C gave a pIC50 (Androgen receptor) of 4.30 and an IC50 [3] of 340 nM.
Work on C[C@]12CC[C@H]3[C@@H](CCC4=CC(=O)CC[C@@H]43)[C@@H]1CC[C@@]21CCCO1 yielded a pIC50 (Androgen receptor) of 7.52 and an IC50 [1] of 1.5e-06 M.
Molecule CN1C(=O)CC[C@@]2(C)C1CC[C@H]1[C@@H]3CC[C@H](C(=O)N4CCOCC4)[C@@]3(C)CC[C@@H]12 (some centres not stated) has a pIC50 (Androgen receptor) of 5.00 and an IC50 [3] of 27 nM.
For C[C@H]1CC2N(C)C(=O)CC[C@]2(C)[C@H]2CC[C@@]3(C)[C@@H](CC[C@@]34CCCO4)[C@H]12 (some centres not stated), the pIC50 (Androgen receptor) was 6.30 and the IC50 [3] was 4.6 nM.
Molecule CCN(CC)C(=O)[C@H]1CCC[C@H]2[C@@H]3CC[C@H]4N(C)C(=O)NC[C@]4(C)[C@H]3CC[C@]12C has a pIC50 (Androgen receptor) of 5.80 and an IC50 [3] of 500 nM.
In the case of CNC(=O)[C@H]1CC[C@H]2[C@@H]3CC=C4N(C)C(=O)CC[C@]4(C)[C@H]3CC[C@]12C, the pIC50 (Androgen receptor) was 6.40 and the IC50 [3] was 140 nM.
For CCN(CC)C(=O)[C@H]1CC[C@H]2[C@@H]3CC[C@H]4N(C)/C(=N/O)CC[C@]4(C)[C@H]3CC[C@]12C, the pIC50 (Androgen receptor) was 6.27 and the IC50 [3] was 100 nM.
CC(C)N(C(=O)[C@H]1CC[C@H]2[C@@H]3CC[C@@H]4N(C)C(=O)CC[C@]4(C)[C@H]3CC[C@]12C)C(C)C was tested, and the pIC50 (Androgen receptor) was < 5.00 and the IC50 [3] was 1000 nM.
With C[C@]12C=CC(=O)NC1CC[C@@H]1[C@@H]2CC[C@@]2(C)[C@H]1CC[C@@]21CCCO1 (some centres not stated) the pIC50 (Androgen receptor) was 5.82 and the IC50 [3] was 430 nM.
In the case of CCN(CC)C(=O)[C@H]1CC[C@H]2[C@@H]3CCC4N(C)C(=O)C=C(C#N)[C@]4(C)[C@H]3CC[C@]12C (some centres not stated), the pIC50 (Androgen receptor) was < 5.00 and the IC50 [3] was > 1000 nM.
Molecule COC(=O)[C@H]1CC[C@H]2[C@@H]3CCC4N(C)C(=O)CC[C@]4(C)[C@H]3CC[C@]12C (some centres not stated) has a pIC50 (Androgen receptor) of 6.92, an IC50 [3] of 7.6 nM and a Ki app [5] of 165 nM.
CC(C)N(C(=O)[C@H]1CC[C@H]2[C@@H]3CC=C4NC(=O)CC[C@]4(C)[C@H]3CC[C@]12C)C(C)C was tested, and the pIC50 (Androgen receptor) was 4.85 and the IC50 [3] was 86 nM.
With C=C1C[C@@H]2[C@H](CC[C@@]3(C)[C@H]2CC[C@]3(OC(C)=O)C(C)=O)[C@@]2(C)CCC(=O)C=C12 the IC50 [1] was 1.6e-07 M.
Work on CC(O)[C@H]1[C@H](C)C[C@H]2[C@@H]3CCC4N(C)C(=O)CC[C@]4(C)[C@H]3CC[C@@]21C (some centres not stated) yielded a pIC50 (Androgen receptor) of 6.77 and an IC50 [3] of 2.8 nM.
CCN(CC)C(=O)[C@H]1CC[C@H]2[C@@H]3CC[C@H]4N(C)C(=O)[C@@H](C)C[C@]4(C)[C@H]3CC[C@]12C was tested, and the pIC50 (Androgen receptor) was 5.21 and the IC50 [3] was 20 nM.
Work on CCCCCCCCCCCCCCCCCCNC(=O)[C@H]1CC[C@H]2[C@@H]3CCC4N(C)C(=O)CC[C@]4(C)[C@H]3CC[C@]12C (some centres not stated) yielded a pIC50 (Androgen receptor) of 4.77 and an IC50 [3] of 20 nM.
With CCN(CC)C(=O)[C@H]1CC[C@H]2[C@@H]3CC[C@H]4N(C)C(=O)C=C[C@]4(C)[C@H]3CC[C@]12C the pIC50 (Androgen receptor) was 6.35 and the IC50 [3] was 290 nM.
CCC(C)C(=O)[C@H]1CC[C@H]2[C@@H]3CCC4N(C)C(=O)C=C[C@]4(C)[C@H]3CC[C@]12C (some centres not stated) was tested, and the pIC50 (Androgen receptor) was 7.19 and the IC50 [3] was 120 nM.
CN1C(=O)CC[C@@]2(C)C1CC[C@@H]1[C@@H]2CC[C@@]2(C)[C@H]1CC[C@@]21CCC(=O)O1 (some centres not stated) gave a pIC50 (Androgen receptor) of 7.05 and an IC50 [3] of 40 nM.
For CC(C(=O)[O-])[C@H]1CC[C@H]2[C@@H]3CCC4N(C)C(=O)CC[C@]4(C)[C@H]3CC[C@]12C.[Na+] (some centres not stated), the pIC50 (Androgen receptor) was 4.34, the Ki app [2] was 1.7 nM and the IC50 [3] was 1.7 nM.
For CC(C)N(C(=O)[C@H]1CC[C@H]2[C@@H]3CCC4NC(=O)C=C[C@]4(C)[C@H]3CC[C@]12C)C(C)C (some centres not stated), the pIC50 (Androgen receptor) was 4.74 and the IC50 [3] was 79 nM.
In the case of CCN(CC)C(=O)C[C@H]1CC[C@H]2[C@@H]3CCC4N(C)C(=O)CC[C@]4(C)[C@H]3CC[C@]12C (some centres not stated), the pIC50 (Androgen receptor) was 6.25 and the IC50 [3] was 7.9 nM.
C[C@]12CCC(=O)NC1CC[C@@H]1[C@@H]2CC[C@@]2(C)[C@H]1CC[C@@]21CCCO1 (some centres not stated) was tested, and the pIC50 (Androgen receptor) was 5.60 and the IC50 [3] was 93 nM.
C[C@]12CCC(=O)C=C1CC[C@@H]1[C@@H]2CC[C@@]2(C)[C@H]1CC[C@@]21CCCO1 showed a pIC50 (Androgen receptor) of 7.05 and an IC50 [1] of 1.1e-06 M.
